Here are results for 20 compounds from the RepoRT retention time repository.

Structures are written as SMILES.

A short description of this data set: RP, Waters Atlantis T3, 50 × 4.6 mm, 5 µm, 40 °C, 0.8 mL/min, estimated dead time 0.66 min; A: water + 0.05% trifluoroacetic acid; B: acetonitrile + 0.1% formic acid, pH 3; gradient (min/%B) 0/10 1/10 7/95 12/95 12.5/10 14/10. The following applies: stereoisomer not certain.
As to `CC1(C)SC2C(NC(=O)C(N)c3ccccc3)C(=O)N2C1C(=O)O` (stereo not given) [Ampicillin], the LC retention time is 4.09 min.

Consider `CC1C(NC(=O)C(=NOC(C)(C)C(=O)O)c2csc(N)n2)C(=O)N1S(=O)(=O)O` (stereo not given) [Aztreonam], for which the LC retention time was 2.91 min.

As to `CCC1OC(=O)C(C)C(OC2CC(C)(OC)C(O)C(C)O2)C(C)C(OC2OC(C)CC(N(C)C)C2O)C(C)(OC)CC(C)C(=O)C(C)C(O)C1(C)O` (stereo not given) [Clarithromycin], the LC retention time was 5.91 min.

As to `CCCC1CC(C(=O)NC(C(C)Cl)C2OC(SC)C(O)C(O)C2O)N(C)C1` (stereo not given) [Clindamycin], the LC retention time was 4.83 min.

Consider `CCC(C)CCCC(=O)NC(CCN)C(=O)NC(C(=O)NC(CCN)C(=O)NC1CCNC(=O)C(C(C)O)NC(=O)C(CCN)NC(=O)C(CCN)NC(=O)C(CC(C)C)NC(=O)C(CC(C)C)NC(=O)C(CCN)NC1=O)C(C)O` (stereo not given) [Colistin], for which the LC retention time was 4.44 min.

Consider `CCCCCCCCCC(=O)NC(Cc1c[nH]c2ccccc12)C(=O)NC(CC(N)=O)C(=O)NC(CC(=O)O)C(=O)NC1C(=O)NCC(=O)NC(CCCN)C(=O)NC(CC(=O)O)C(=O)NC(C)C(=O)NC(CC(=O)O)C(=O)NCC(=O)NC(CO)C(=O)NC(C(C)CC(=O)O)C(=O)NC(CC(=O)c2ccccc2N)C(=O)OC1C` (stereo not given) [Daptomycin], for which the LC retention time is 5.79 min.

Consider `COc1cccc2c1C(=O)c1c(O)c3c(c(O)c1C2=O)CC(O)(C(C)=O)CC3OC1CC(N)C(O)C(C)O1` (stereo not given) [Daunomycin], for which the LC retention time was 5.44 min.

As for `CC(=O)OC1CC2(C)C(CC(O)C3C4(C)CCC(O)C(C)C4CCC32C)C1=C(CCC=C(C)C)C(=O)O` (stereo not given) [Fusidinic acid], the LC retention time is 8.3 min.

As for `CNC(=O)CC1NC(=O)c2csc(n2)-c2ccc(-c3nc(C4=NC(C(=O)N5CCCC5C(N)=O)CO4)cs3)nc2-c2csc(n2)-c2csc(n2)C(C(O)c2ccccc2)NC(=O)CNC(=O)c2nc(sc2COC)C(C(C)C)NC(=O)c2nc1sc2C` (stereo not given) [GE2270A], the LC retention time is 6.62 min.

As to `CC=CC=CC1OC(O)(C(CC)C(=O)NCC=CC=C(C)C(OC)C(C)C2OC(C=CC=CC=C(C)C(=O)c3c(O)cc[nH]c3=O)C(O)C2O)C(O)C(O)C1(C)C` (stereo not given) [Kirromycin], the LC retention time was 6.52 min.

`C=C(NC(=O)c1csc(-c2nc3c(cc2O)-c2nc(cs2)C(=O)NC(C(C)O)C(=O)NC(=CC)c2nc(cs2)C(=O)NC2CC(O)C(=O)OCc4cccc5[nH]c(c(C)c45)C(=O)SCC(NC(=O)c4csc2n4)c2nc-3cs2)n1)C(N)=O` (stereo not given) [Nosiheptide]: the LC retention time was 6.77 min.

In the case of `COC1C(OC(N)=O)C(O)C(Oc2ccc3c(O)c(NC(=O)c4ccc(O)c(CC=C(C)C)c4)c(=O)oc3c2C)OC1(C)C` (stereo not given) [Novobiocin], the LC retention time was 7.62 min.

`CC1(C)SC2C(NC(=O)Cc3ccccc3)C(=O)N2C1C(=O)O` (stereo not given) [Penicillin G]: the LC retention time was 5.75 min.

Regarding `CCCC=CC=CC(=O)NC(CC(N)=O)C(=O)NC(CC(N)=O)C(=O)NC(C(=O)NC(CCCN)C(=O)NC(C(=O)NC(C(=O)NC(C(=O)NC(C(=O)NC(Cc1ccccc1)C(=O)NC(CCCN)C(=O)NC(C(=O)NC(C(=O)NC(C(=O)NCC(=O)NC(CC(C)C)C(=O)NC(C)C(=O)NC(C(=O)O)C1CCC(O)C(Cl)C1)C1CCC(O)CC1)C(C)O)C1CCC(O)CC1)C(C)O)C1CCC(O)CC1)C1CCC(O)CC1)C(C)O)C1CCC(O)CC1` (stereo not given) [Ramoplanin A], the LC retention time is 5.22 min.

For the compound `COC1C=COC2(C)Oc3c(C)c(O)c4c(O)c(c(C=NN5CCN(C)CC5)c(O)c4c3C2=O)NC(=O)C(C)=CC=CC(C)C(O)C(C)C(O)C(C)C(OC(C)=O)C1C` (stereo not given) [Rifampicin], the LC retention time is 6.17 min.

On to `CCC(C(=O)O)C1CCC(C)C(C(C)C(O)C(C)C(=O)C(CC)C2OC3(C=CC(O)C4(CCC(C)(C5CCC(O)(CC)C(C)O5)O4)O3)C(C)CC2C)O1` (stereo not given) [Salinomycin], for which the LC retention time is 11.2 min.

With `CC(=O)NC1C(OC2c3ccc(c(Cl)c3)Oc3cc4cc(c3O)Oc3ccc(cc3Cl)CC3NC(=O)C(N)c5ccc(O)c(c5)Oc5cc(O)cc(c5)C(NC3=O)C(=O)NC4C(=O)NC3C(=O)NC2C(=O)NC(C(=O)O)c2cc(O)cc(OC4OC(CO)C(O)C(O)C4O)c2-c2cc3ccc2O)OC(CO)C(O)C1O` (stereo not given) [Teicoplanin A3-1], the LC retention time was 4.02 min.

As to `C=C(NC(=O)C(=C)NC(=O)c1csc(C2=NC3c4csc(n4)C4NC(=O)c5csc(n5)C(C(C)(O)C(C)O)NC(=O)C5CSC(=N5)C(=CC)NC(=O)C(C(C)O)NC(=O)c5csc(n5)C3(CC2)NC(=O)C(C)NC(=O)C(=C)NC(=O)C(C)NC(=O)C(C(C)CC)NC2C=Cc3c(C(C)O)cc(nc3C2O)C(=O)OC4C)n1)C(N)=O` (stereo not given) [Thiostrepton], the LC retention time was 6.65 min.

For the compound `COc1cc(Cc2cnc(N)nc2N)cc(OC)c1OC` [Trimethoprim], the LC retention time is 4.06 min.

For `CNC(CC(C)C)C(=O)NC1C(=O)NC(CC(N)=O)C(=O)NC2C(=O)NC3C(=O)NC(C(=O)NC(C(=O)O)c4cc(O)cc(O)c4-c4cc3ccc4O)C(O)c3ccc(c(Cl)c3)Oc3cc2cc(c3OC2OC(CO)C(O)C(O)C2OC2CC(C)(N)C(O)C(C)O2)Oc2ccc(cc2Cl)C1O` (stereo not given) [Vancomycin], the LC retention time was 3.55 min.
